The text below walks through data of ChEMBL document CHEMBL3045532, “Synthesis and evaluation of novel prodrugs of naproxen” (Med Chem Res, 2011).

For series [1], the system named is Rattus norvegicus. The experiment in a line: Anti-inflammatory activity in Rattus norvegicus Wistar (rat) assessed as inhibition of carrageenan-induced edema volume at 67.8 mg/kg, po measured after 120 min. The note with it: 2 h. Format: functional. In general terms: The carrageenan paw model is a standard test of acute inflammation.
The subject of series [2] is Rattus norvegicus. Nature of the series: Anti-inflammatory activity in Rattus norvegicus Wistar (rat) assessed as inhibition of carrageenan-induced edema volume at 67.8 mg/kg, po measured after 60 min. Particulars: 1 h. Type of series: functional.
Series [3] relates to Rattus norvegicus. The experiment in a line: Anti-inflammatory activity in Rattus norvegicus Wistar (rat) assessed as inhibition of carrageenan-induced edema volume at 67.8 mg/kg, po measured after 30 min. Format: functional. The note with it: 0.5 h.
Series [4] deals with Rattus norvegicus. Nature of the series: Anti-inflammatory activity in Rattus norvegicus Wistar (rat) assessed as inhibition of carrageenan-induced edema volume at 67.8 mg/kg, po measured after 90 min. Particulars: 1.5 h. Type of series: functional.
The test system of series [5] is Mus musculus. The experiment in a line: Analgesic activity in Mus musculus (mouse) assessed as inhibition of acetic acid-induced writhing at 67.8 mg/kg, po pretreated 1 hr before acetic acid challenge. Type of series: functional. For orientation: Writhing tests count abdominal constrictions after an irritant is injected.
The subject of series [6] is Mus musculus. Nature of the series: Analgesic activity in Mus musculus (mouse) assessed as inhibition of acetic acid-induced writhing at 64.7 mg/kg, po pretreated 1 hr before acetic acid challenge. Format: functional.
Series [7] deals with Rattus norvegicus. Nature of the series: Anti-inflammatory activity in Rattus norvegicus Wistar (rat) assessed as inhibition of carrageenan-induced edema volume at 64.7 mg/kg, po measured after 90 min. Type of series: functional. The note with it: 1.5 h.
In series [8] the test system is Rattus norvegicus. Nature of the series: Anti-inflammatory activity in Rattus norvegicus Wistar (rat) assessed as inhibition of carrageenan-induced edema volume at 64.7 mg/kg, po measured after 30 min. Type of series: functional. The note with it: 0.5 h.
Series [9] concerns Rattus norvegicus. Nature of the series: Anti-inflammatory activity in Rattus norvegicus Wistar (rat) assessed as inhibition of carrageenan-induced edema volume at 64.7 mg/kg, po measured after 120 min. Format: functional. The note with it: 2 h.
The test system of series [10] is Rattus norvegicus. Nature of the series: Anti-inflammatory activity in Rattus norvegicus Wistar (rat) assessed as inhibition of carrageenan-induced edema volume at 64.7 mg/kg, po measured after 60 min. Type of series: functional. The note with it: 1 h.
The test system of series [11] is Rattus norvegicus. The experiment in a line: Anti-inflammatory activity in Rattus norvegicus Wistar (rat) assessed as inhibition of carrageenan-induced edema volume at 67.4 mg/kg, po measured after 30 min. Format: functional. Particulars: 0.5 h.
Series [12] relates to Rattus norvegicus. Nature of the series: Anti-inflammatory activity in Rattus norvegicus Wistar (rat) assessed as inhibition of carrageenan-induced edema volume at 67.4 mg/kg, po measured after 90 min. The note with it: 1.5 h. Format: functional.
Series [13] deals with Mus musculus. Nature of the series: Analgesic activity in Mus musculus (mouse) assessed as inhibition of acetic acid-induced writhing at 67.4 mg/kg, po pretreated 1 hr before acetic acid challenge. Type of series: functional.
In series [14] the test system is Rattus norvegicus. The experiment in a line: Anti-inflammatory activity in Rattus norvegicus Wistar (rat) assessed as inhibition of carrageenan-induced edema volume at 67.4 mg/kg, po measured after 120 min. Type of series: functional. The note with it: 2 h.
In series [15] the test system is Rattus norvegicus. Nature of the series: Anti-inflammatory activity in Rattus norvegicus Wistar (rat) assessed as inhibition of carrageenan-induced edema volume at 67.4 mg/kg, po measured after 60 min. Format: functional. Particulars: 1 h.
Series [16] concerns Rattus norvegicus. Nature of the series: Gastrointestinal toxicity in Rattus norvegicus Wistar (rat) assessed as ulcer at 69.4 mg/kg, po. Format: organism-based. Further details: dose 69.4 mg/kg, route oral. Particulars: in vivo.
For series [17], the system named is Rattus norvegicus. The experiment in a line: Anti-inflammatory activity in Rattus norvegicus Wistar (rat) assessed as inhibition of carrageenan-induced edema volume at 69.4 mg/kg, po measured after 30 min. Format: functional. The note with it: 0.5 h.
Series [18] can be described thus: Prodrug conversion in phosphate buffer assessed as half-life for hydrolysis at pH 7.4. Type of series: physicochemical.
The subject of series [19] is Rattus norvegicus. The experiment in a line: Anti-inflammatory activity in Rattus norvegicus Wistar (rat) assessed as inhibition of carrageenan-induced edema volume at 69.4 mg/kg, po measured after 120 min. Type of series: functional. Particulars: 2 h.
Series [20] concerns Mus musculus. The experiment in a line: Analgesic activity in Mus musculus (mouse) assessed as inhibition of acetic acid-induced writhing at 69.4 mg/kg, po pretreated 1 hr before acetic acid challenge. Type of series: functional.
A short description of series [21]: Prodrug conversion in acetate buffer assessed as half-life for hydrolysis at pH 3. Type of series: physicochemical.
For series [22], the system named is Rattus norvegicus. The experiment in a line: Anti-inflammatory activity in Rattus norvegicus Wistar (rat) assessed as inhibition of carrageenan-induced edema volume at 69.4 mg/kg, po measured after 60 min. Type of series: functional. The note with it: 1 h.
Series [23] can be described thus: Prodrug conversion in acetate buffer assessed as half-life for hydrolysis at pH 4. Format: physicochemical.
Series [24] is described as follows: Prodrug conversion in acetate buffer assessed as half-life for hydrolysis at pH 5. Format: physicochemical.
Series [25] has as its system Rattus norvegicus. The experiment in a line: Anti-inflammatory activity in Rattus norvegicus Wistar (rat) assessed as inhibition of carrageenan-induced edema volume at 69.4 mg/kg, po measured after 90 min. Type of series: functional. The note with it: 1.5 h.
Series [26] relates to Rattus norvegicus. The experiment in a line: Anti-inflammatory activity in Rattus norvegicus Wistar (rat) assessed as inhibition of carrageenan-induced edema volume at 67.6 mg/kg, po measured after 90 min. Format: functional. The note with it: 1.5 h.
The test system of series [27] is Rattus norvegicus. Nature of the series: Anti-inflammatory activity in Rattus norvegicus Wistar (rat) assessed as inhibition of carrageenan-induced edema volume at 67.6 mg/kg, po measured after 60 min. Type of series: functional. Particulars: 1 h.
For series [28], the system named is Rattus norvegicus. The experiment in a line: Anti-inflammatory activity in Rattus norvegicus Wistar (rat) assessed as inhibition of carrageenan-induced edema volume at 67.6 mg/kg, po measured after 120 min. Type of series: functional. Particulars: 2 h.
Series [29] has as its system Mus musculus. Nature of the series: Analgesic activity in Mus musculus (mouse) assessed as inhibition of acetic acid-induced writhing at 67.6 mg/kg, po pretreated 1 hr before acetic acid challenge. Format: functional.
Series [30] has as its system Rattus norvegicus. Nature of the series: Anti-inflammatory activity in Rattus norvegicus Wistar (rat) assessed as inhibition of carrageenan-induced edema volume at 67.6 mg/kg, po measured after 30 min. Type of series: functional. The note with it: 0.5 h.

Broadly, the inhibition in vivo is the drop in the measured response relative to a control, in per cent. As for `COc1ccc2cc(C(C)C(=O)OCC(OC(C)=O)C(OC(C)=O)C(OC(C)=O)C(/C=N/[C@@H](Cc3ccccc3)C(=O)O)OC(C)=O)ccc2c1` (stereo not given in full), the inhibition in vivo at 67.8 mg/kg in the series on Rattus norvegicus [1] was found to be 69%; in the series with Rattus norvegicus [2] it was 13%; in the series with Rattus norvegicus [3], 22%; with Rattus norvegicus [4], 47%; in the series with Mus musculus [5], 91.2%.
In the case of `COc1ccc2cc(C(C)C(=O)OCC(OC(C)=O)C(OC(C)=O)C(OC(C)=O)C(/C=N/[C@@H](CCCN)C(=O)O)OC(C)=O)ccc2c1` (stereo not given in full), the inhibition in vivo at 64.7 mg/kg in the series on Mus musculus [6] was determined as 82%; with Rattus norvegicus [7], 50%; with Rattus norvegicus [8], 24%; in the series with Rattus norvegicus [9], 67%; in the series with Rattus norvegicus [10], 32%.
`COc1ccc2cc(C(C)C(=O)OCC(OC(C)=O)C(OC(C)=O)C(OC(C)=O)C(/C=N/[C@@H](CC(C)C)C(=O)O)OC(C)=O)ccc2c1` (stereo not given in full): the inhibition in vivo at 67.4 mg/kg in the series on Rattus norvegicus [11] stood at 46%; in the series on Rattus norvegicus [12], 32%; in the series on Mus musculus [13], 70.5%; in the series on Rattus norvegicus [14], 64%; with Rattus norvegicus [15] it was 30%. Moreover, in the series with Rattus norvegicus [16], the Activity entry is “Non-toxic”.
As for `COc1ccc2cc(C(C)C(=O)OCC(OC(C)=O)C(OC(C)=O)C(OC(C)=O)C(/C=N/[C@@H](Cc3ccc(O)cc3)C(=O)O)OC(C)=O)ccc2c1` (stereo not given in full), the inhibition in vivo at 69.4 mg/kg in the series with Rattus norvegicus [17] turned out to be 60%; in the series with Rattus norvegicus [19], 67%; in the series on Mus musculus [20], 82%; in the series on Rattus norvegicus [22], 25%; in the series on Rattus norvegicus [25], 47%. Also, the t1/2 in [18] worked out at 18 h; in series [21], 22 h; in series [23], 67 h; in series [24] it was 50 h.
On to `COc1ccc2cc(C(C)C(=O)OCC(OC(C)=O)C(OC(C)=O)C(OC(C)=O)C(/C=N/[C@@H](CC(=O)O)C(=O)O)OC(C)=O)ccc2c1` (stereo not given in full), for which the inhibition in vivo at 67.6 mg/kg in the series with Rattus norvegicus [26] was found to be 28%; in the series on Rattus norvegicus [27] it was 1%; in the series with Rattus norvegicus [28], 45%; in the series on Mus musculus [29], 75.1%; in the series with Rattus norvegicus [30] it was 20%.
